Source: patent EP0537993A1, “Nicotinic activity of a series of arecolones and isoarecolones” (ELI LILLY AND COMPANY, priority 1991, dated 1993)
pKi: −log10 of the molar value. Where a name gives a salt, the structure may show the parent alone. Values belong to the molecule of their own block, whether it stands above or below them.

Key:
[1] = system: rats; settings: cited from earlier work
[2] = system: nicotinic and muscarinic receptors; settings: cited from earlier work
[3] = target: muscarinic receptors; experiment: Inhibition of 3H-oxotremorine-M binding to hippocampal membranes; settings: [3H]oxotremorine ([3H]OXO) binding, muscarinic receptor affinity, rat membranes
Description: The hippocampus from male Sprague-Dawley rats was homogenized in 10 volumes of 0.32 M sucrose, centrifuged at 1000 x g for 10 min, and the supernatant was centrifuged at 17,000 x g for 20 min. The synaptosoma! fraction (P₂) pellet was homogenized in 50 volumes of 20 mM Tris-Cl buffer, pH 7.4, and centrifuged at 50,000 x g for 10 min. After resuspension in buffer, the suspension was preincubated for 30 min at 4 °C, and centrifuged again. The pellet was resuspended in 3 volumes of buffer and frozen at -70 °C until used.
For oxotremorine-M binding, the homogenates were incubated at 25 °C for 15 min. After incubation, the homogenates were filtered through Whatman GF/C filters with vacuum. The filters were rinsed 3X with 1 mL of cold buffer and placed in scintillation vials containing Ready Protein+ (Beckman) scintillation fluid. Radioactivity trapped on the filters was determined by liquid scintillation spectrometry. Non specific binding was determined using 1 µM atropine.
The concentration of compound required to inhibit binding 50% (IC₅₀) was calculated using the ALLFIT program.

[4] = target: nicotinic receptors (Rattus norvegicus, UniProt P09483+P12390); experiment: [3H]N-methyl-carbamyl choline ([3H]MCC) binding to rat brain cortical membranes; settings: selectivity for nicotinic over muscarinic receptors
nicotinic receptors, sequence (P09483 31-630): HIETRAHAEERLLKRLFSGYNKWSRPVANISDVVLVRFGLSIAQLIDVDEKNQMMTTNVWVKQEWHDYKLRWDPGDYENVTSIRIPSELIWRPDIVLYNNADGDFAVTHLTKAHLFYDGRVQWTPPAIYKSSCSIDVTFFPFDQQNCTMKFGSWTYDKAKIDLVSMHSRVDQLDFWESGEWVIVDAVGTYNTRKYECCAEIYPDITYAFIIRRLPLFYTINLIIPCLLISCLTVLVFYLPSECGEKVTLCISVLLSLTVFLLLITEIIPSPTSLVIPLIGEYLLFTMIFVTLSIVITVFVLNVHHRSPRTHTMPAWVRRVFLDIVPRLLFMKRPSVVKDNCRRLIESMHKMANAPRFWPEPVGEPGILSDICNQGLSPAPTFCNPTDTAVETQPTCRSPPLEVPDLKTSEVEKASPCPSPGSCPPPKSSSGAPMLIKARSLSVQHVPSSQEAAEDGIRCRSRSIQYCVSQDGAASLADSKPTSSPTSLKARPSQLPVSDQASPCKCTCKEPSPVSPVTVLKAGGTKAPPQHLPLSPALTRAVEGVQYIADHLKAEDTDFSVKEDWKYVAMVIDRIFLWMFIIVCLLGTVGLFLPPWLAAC
nicotinic receptors, sequence (P12390 25-500): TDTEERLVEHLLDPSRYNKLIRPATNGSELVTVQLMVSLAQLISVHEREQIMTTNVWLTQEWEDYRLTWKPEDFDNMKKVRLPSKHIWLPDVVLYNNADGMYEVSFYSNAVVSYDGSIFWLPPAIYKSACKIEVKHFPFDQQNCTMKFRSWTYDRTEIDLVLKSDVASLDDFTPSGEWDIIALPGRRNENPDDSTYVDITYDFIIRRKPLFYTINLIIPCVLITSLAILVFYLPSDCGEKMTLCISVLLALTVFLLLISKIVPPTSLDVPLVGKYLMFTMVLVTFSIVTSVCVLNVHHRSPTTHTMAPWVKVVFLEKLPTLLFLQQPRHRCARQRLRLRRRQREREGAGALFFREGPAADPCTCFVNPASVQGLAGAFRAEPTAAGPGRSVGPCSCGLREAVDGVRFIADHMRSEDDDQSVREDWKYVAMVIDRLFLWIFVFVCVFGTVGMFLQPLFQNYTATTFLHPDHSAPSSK
Description: Binding to rat brain nicotinic receptors was performed using the method of Abood and Grassi. Abood, L.E. et al., Biochem. Pharmacol. 35:4199-4202 (1987). Frozen rat brain cortices (Pel-Freez Biologicals, Roger, AR) were homogenized using a Polytron (Binkmann PT-10; setting 6 for 15 sec) in 30 volumes of buffer (50 mM tris, 120 mM sodium chloride, 5 mM potassium chloride, 2 mM calcium chloride, 1 mM magnesium chloride, pH 7.3 at 4°C). The homogenate was centrifuged at 1,000 xg for 10 min. (Sorval RC-5B; SA600 rotor). The supernatant was then centrifuged at 40,000 xg for 20 min. The final pellet was resuspended in buffer at a concentration of 12 vol./gram wet weight of tissue. Final protein concentrations for each assay were determined using the Lowry et al. method. Lowry, O.H. et al., J. Biol. Chem. 193:265-275 (1951).
[³H]N-Methyl-carbamyl choline iodide ([³H]MCC) binding to rat cortices was measured by filtration. Compounds dissolved in distilled water at concentrations of 1 nM to 1 mM, were incubated with [³H]MCC (1 nM), membrane aliquots (approximately 1.5 mg./ml. protein) and buffer, in a final volume of 0.5 ml. […] Nonspecific [³H]MCC binding was determined in the presence of 10 mM nicotine. […]
Radioactivity bound was determined after a period of equilibration (at least 5 hr) in Beckman Ready Protein Scintillation Cocktail using a Beckman LS5000 TA counter with an efficiency of 43%. […]

Molecule: 1-methyl-4-acetyl-1,2,3,6-tetrahydropyridine [isoarecolone methiodide]
nicotine-like discriminative stimulus effects [1]: produce nicotine-like discriminative stimulus effects | agonist which binds to nicotinic and muscarinic receptors [2]: very potent agonist

pKi [3]: 5.32
Molecule: CCC(C)C(=O)C1=CCN(C)CC1 (stereo not drawn) [Example 11, 1-(1,2,3.6-Tetrahydro-1-methyl-4-pyridinyl)-2-methylbutanone]

Molecule: CN1CC=C(C(=O)C(C)(C)C)CC1 [Example 12, 1-(1,2,3,6-Tetrahydro-1-methyl-4-pyridinyl)-2,2-dimethylpropanone]
Ki Ratio OXO/MCC [4]: 110 | pKi [3]: 5.20

Molecule: CC(=O)C1=CCN(C)CC1 [isoarecolone HCl]
nicotine-like discriminative stimulus effects [1]: produce nicotine-like discriminative stimulus effects
